Assay results as given in PMC6119644 (Bioorganic & medicinal chemistry letters, 2018).

Target: GOT1 (Homo sapiens, UniProt P17174)
Experiment: MDH coupled GOT1 enzymatic assay
Assay type: biochemical
Details: for GOT1 inhibition activity (in words): MDH coupled GOT1 enzymatic assay; for enhancement in potency: relative to 1a, GOT1 inhibition

Sequence of GOT1 (P17174 whole entry): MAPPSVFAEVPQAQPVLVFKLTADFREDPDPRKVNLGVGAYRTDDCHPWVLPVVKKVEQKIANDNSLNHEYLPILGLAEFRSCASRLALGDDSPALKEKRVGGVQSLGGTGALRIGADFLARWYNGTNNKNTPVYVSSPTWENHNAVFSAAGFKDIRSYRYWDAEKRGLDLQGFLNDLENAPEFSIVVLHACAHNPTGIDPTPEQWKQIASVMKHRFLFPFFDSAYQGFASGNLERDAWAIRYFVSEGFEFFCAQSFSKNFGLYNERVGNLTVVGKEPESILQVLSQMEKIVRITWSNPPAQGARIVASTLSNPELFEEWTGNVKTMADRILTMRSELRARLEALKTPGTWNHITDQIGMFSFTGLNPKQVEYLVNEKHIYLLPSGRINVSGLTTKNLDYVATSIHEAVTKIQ

| Compound | GOT1 inhibition activity (in words) | enhancement in potency |
| --- | --- | --- |
| O=C(Nc1ccc(C(F)(F)F)cc1)N1CCN(c2cccc3[nH]ccc23)CC1 [Compound 2d] | – | ~ 10 fold |
| O=C(Nc1cccc(C(F)(F)F)c1)N1CCN(c2cccc3[nH]ccc23)CC1 [Compound 2g] | – | ~ 10 fold |
| O=C(NCCc1c[nH]c2ccccc12)Nc1ccccc1 [Compound 3a] | no significant activity | – |

Next, values leading:

| GOT1 inhibition activity (in words) | enhancement in potency | Compound |
| --- | --- | --- |
| lack of observed activity | – | O=C(Nc1ccccc1)N1CCN(c2cccc3[nH]ncc23)CC1 [Compound 1j] |
| lack of observed activity | – | O=C(Nc1ccccc1)N1CCN(c2cccc3ncccc23)CC1 [Compound 1k] |
| – | ~ 10 fold | O=C(Nc1ccc(Cl)cc1)N1CCN(c2cccc3[nH]ccc23)CC1 [Compound 2c] |
